Measured values from US20230374030A1, “SOLID-STATE FORMS OF RELUGOLIX” (MACFARLAN SMITH LIMITED, priority 2019, published 2023).

What was measured:
Type in all cases: physicochemical
[1] = Solid-state stability under humidity (storage at high humidity; XRPD after DVS); settings: for stability at various humidity levels: XRPD analysis after DVS
[2] = Solid-state stability on drying under vacuum
Method: Form A of the DMF solvate of relugolix is stable, i.e., it is unchanged after prolonged drying (e.g., about 2 days) under vacuum at about 70° C.

[3] = Dynamic vapor sorption (DVS); settings: for weight loss in DVS: relative humidity about 0 to 95%
Method: DVS samples are analyzed using a TA Instruments Q5000SA gravimetric water sorption analyzer. The relative humidity is adjusted between about 0-95% and the weight of the sample is continuously monitored and recorded with respect to the relative humidity and time.

CONC(=O)Nc1ccc(-c2sc3c(c2CN(C)C)c(=O)n(-c2ccc(OC)nn2)c(=O)n3Cc2c(F)cccc2F)cc1 [Form A of the DMF solvate of relugolix, 1-[4-[1-[(2,6-difluorophenyl)-methyl]-5-[(dimethylamino)methyl]-3-(6-methoxypyridazin-3-yl)-2,4-dioxothieno-[2,3-d]pyrimidin-6-yl]phenyl]-3-methoxyurea]
stability under humidity ([1]; about 97% humidity, ambient temperatures, over a month): remains unchanged
stability after prolonged drying ([2]; about 2 days under vacuum at about 70° C.): unchanged
loss of mass in DVS ([3]; at about 90% RH): about 1%

CONC(=O)Nc1ccc(-c2sc3c(c2CN(C)C)c(=O)n(-c2ccc(OC)nn2)c(=O)n3Cc2c(F)cccc2F)cc1 [Form C of anhydrous relugolix, 1-[4-[1-[(2,6-difluorophenyl)-methyl]-5-[(dimethylamino)methyl]-3-(6-methoxypyridazin-3-yl)-2,4-dioxothieno-[2,3-d]pyrimidin-6-yl]phenyl]-3-methoxyurea]
stability at various humidity levels [1]: remains stable
water absorption in DVS (and secretion of it all) ([3]; relative humidity about 0 to about 95%): ~2%

CONC(=O)Nc1ccc(-c2sc3c(c2CN(C)C)c(=O)n(-c2ccc(OC)nn2)c(=O)n3Cc2c(F)cccc2F)cc1 [Form B of anhydrous relugolix, 1-[4-[1-[(2,6-difluorophenyl)-methyl]-5-[(dimethylamino)methyl]-3-(6-methoxypyridazin-3-yl)-2,4-dioxothieno-[2,3-d]pyrimidin-6-yl]phenyl]-3-methoxyurea]
stability at various humidity levels [1]: remains stable
weight loss in DVS [3]: about 7%

CONC(=O)Nc1ccc(-c2sc3c(c2CN(C)C)c(=O)n(-c2ccc(OC)nn2)c(=O)n3Cc2c(F)cccc2F)cc1 [Form A of anhydrous relugolix, 1-[4-[1-[(2,6-difluorophenyl)-methyl]-5-[(dimethylamino)methyl]-3-(6-methoxypyridazin-3-yl)-2,4-dioxothieno-[2,3-d]pyrimidin-6-yl]phenyl]-3-methoxyurea]
stability at various humidity levels [1]: remains stable
XRPD changes after drying ([2]; about 18 hours at about 30° C. under vacuum): no changes
weight loss in DVS [3]: about 2%
